ChEMBL document CHEMBL1128355, “Benzophenone derivatives: a novel series of potent and selective inhibitors of human immunodeficiency virus type 1 reverse transcriptase” (J Med Chem, 1995)
Converted amounts (≈) assume the structure as drawn.

Legend:
C8166 [1] = experiment: Inhibitory activity against syncytia formation in infected C8166 cells; assay type: functional, cell-based; settings: Homo sapiens
C8166 [2] = experiment: Inhibitory activity against P24 antigen formation in infected C8166 cells; assay type: functional, cell-based; settings: Homo sapiens
[3] = Half life period in mouse serum; assay type: ADME, organism-based
[4] = Half life period in mouse S9 liver preparation; assay type: ADME; settings: liver S9 fraction
[5] = biological target: Human immunodeficiency virus type 1 reverse transcriptase (Human immunodeficiency virus 1, UniProt Q72547); experiment: Inhibitory activity against HIV-1 reverse transcriptase
[6] = Toxicity against uninfected MT-4 cells; assay type: cell-based, MT4; settings: human
[7] = test system: Human immunodeficiency virus 1; experiment: Antiviral activity against HIV-1 (strain RF) infected MT-4 cells; assay type: functional, organism-based; settings: Human immunodeficiency virus 1, MT4
MT4 [8] = experiment: Cytotoxicity against uninfected MT-4 cells; assay type: functional, cell-based, Homo sapiens
MT4 [9] = experiment: Antiviral activity against HIV-1 resistant to 2-(2-Benzoyl-4-chloro-phenyl)-N-[4-(3-dimethylamino-propoxy)-2-methyl-phenyl]-acetamide in MT-4 cells; assay type: functional, cell-based; settings: Homo sapiens
[10] = Homo sapiens, MT4, read-out: IC50

| Structure (SMILES) | IC50 (C8166 [1]) [µg/mL] | IC50 (C8166 [2]) [µg/mL] | half-life [3] [h] | half-life [4] [h] | IC50 [5] [µM] | IC50 [6] [µg/mL] | IC50 [7] [µg/mL] | IC50 (MT4 [8]; [10]) [µg/mL] | IC50 (MT4 [9]) [µg/mL] | IC50 (MT4 [8]; mt4) [µg/mL] |
| --- | --- | --- | --- | --- | --- | --- | --- | --- | --- | --- |
| O=C(c1ccccc1)c1cc(Cl)ccc1OCC(=O)N1CCc2ccccc2C1 | 0.011 (≈ 0.0271 µM) | 0.016 (≈ 0.0394 µM) | 1.2 | 2.8 | 0.0148 | > 0.5 | 0.014 (≈ 0.0345 µM) |  |  |  |
| O=C(COc1ccc(-n2ccnc2)cc1C(=O)c1ccccc1)Nc1ccccc1 |  |  |  |  | > 25.2 | 10 (≈ 25.2 µM) | > 10 |  |  |  |
| CCN(CC)CCOc1ccc(NC(=O)COc2ccccc2C(=O)c2ccc(F)cc2)cc1 | 0.016 (≈ 0.0344 µM) | < 0.05 |  |  | 21.5 | > 0.5 | 0.75 (≈ 1.61 µM) |  |  |  |
| O=C(COc1ccc(Cl)cc1C(O)c1ccccc1)Nc1ccccc1 (configuration not stated) |  |  |  |  | > 272 |  |  |  |  |  |
| O=C(COc1ccc(Cl)cc1C(=O)c1ccccc1)Nc1ccccc1 | 0.0002 (≈ 0.000547 µM) | 0.0012 (≈ 0.00328 µM) | < 0.25 | < 0.25 | 0.0273 | > 0.005 | 0.0004 (≈ 0.00109 µM) |  |  |  |
| O=C(COc1ccc(Cl)cc1C(=O)c1cccnc1)Nc1ccccc1 |  |  |  |  | 0.436 | 10 (≈ 27.3 µM) | < 0.01 |  |  |  |
| O=C(COc1ccc(Cl)cc1C(=O)c1ccccc1)NC1CCCCC1 |  |  |  |  | 39 |  |  |  |  |  |
| c1nc2cnncc2[nH]1 |  |  |  |  |  |  | 0.004 (≈ 0.0333 µM) | > 1 | 0.5 (≈ 4.16 µM) |  |
| CCN(CC)CCOc1ccc(NC(=O)COc2ccccc2C(=O)c2ccc(OC)cc2)cc1 | 0.34 (≈ 0.713 µM) | 0.18 (≈ 0.378 µM) |  |  | 14.3 | 5 (≈ 10.5 µM) | 0.44 (≈ 0.923 µM) |  |  |  |
| O=C(COc1ccc(Cl)cc1C(=O)c1ccccc1)c1cc2ccccc2[nH]1 | > 50 | > 5 | < 0.25 | 3.5 | 0.162 | 10 (≈ 25.7 µM) | 0.7 (≈ 1.8 µM) |  |  |  |
| O=C(COc1ccc(Cl)cc1C(=O)C1CCCC1)Nc1ccccc1 |  |  |  |  | 5.03 | > 100 | 0.22 (≈ 0.615 µM) |  |  |  |
| Cc1cc(OCCCN(C)C)ccc1NC(=O)Cc1ccc(Cl)cc1C(=O)c1ccccc1 | 0.016 (≈ 0.0344 µM) | 0.0029 (≈ 0.00624 µM) | 4.75 | 1.8 | 0.753 | > 0.5 | 0.0044 (≈ 0.00946 µM) |  |  |  |
| CCN(CC)CCOc1ccc(NC(=O)COc2ccccc2C(=O)c2ccccc2)cc1 | 0.005 (≈ 0.0112 µM) | 0.0015 (≈ 0.00336 µM) |  |  | 5.15 | > 0.5 | < 0.001 |  |  |  |
| CN(C)CCCOc1ccc(NC(=O)Cc2ccc(Cl)cc2C(=O)c2ccccc2)cc1 |  |  |  |  | 0.443 | 10 (≈ 22.2 µM) | 0.21 (≈ 0.466 µM) |  |  |  |
| O=C(c1ccccc1)c1cc(Cl)ccc1OCc1nc2ccccc2[nH]1 | 0.052 (≈ 0.143 µM) | 0.032 (≈ 0.0882 µM) | > 6 | > 6 | 1.41 | > 0.5 | 0.31 (≈ 0.854 µM) |  |  |  |
| O=C(COc1ccc(Cl)cc1C(=O)c1ccccc1)Cc1ccccc1 |  |  |  |  | 32.9 | > 100 | > 100 |  |  |  |
| Cc1cc(OCCCN(C)C)cc(C)c1NC(=O)Cc1ccc(Cl)cc1C(=O)c1ccccc1 |  |  |  |  | > 104 |  |  |  |  |  |

| Structure (SMILES) | IC50 (C8166 [1]) [µg/mL] | IC50 (C8166 [2]) [µg/mL] | half-life [3] [h] | half-life [4] [h] | IC50 [5] [µM] | IC50 [6] [µg/mL] | IC50 [7] [µg/mL] | IC50 (MT4 [8]; [10]) [µg/mL] | IC50 (MT4 [9]) [µg/mL] | IC50 (MT4 [8]; mt4) [µg/mL] |
| --- | --- | --- | --- | --- | --- | --- | --- | --- | --- | --- |
| O=C(COc1ccc(Cl)c(Cl)c1C(=O)c1ccccc1)Nc1ccccc1 |  |  |  |  | > 250 |  |  |  |  |  |
| CCN(CC)CCOc1ccc(NC(=O)COc2ccc(Cl)cc2C(=O)c2ccccc2)cc1 |  |  |  |  | 0.936 | 10 (≈ 20.8 µM) | > 10 |  |  |  |
| O=C(COc1c(Cl)cc(Cl)cc1C(=O)c1ccccc1)Nc1ccccc1 |  |  |  |  | > 250 |  |  |  |  |  |
| Cc1cc(OCCCN(C)C)ccc1NC(=O)c1ccc(Cl)cc1C(=O)c1ccccc1 |  |  |  |  | > 222 |  |  |  |  |  |
| CN(C)CCCOc1ccc(NC(=O)COc2ccc(Cl)cc2C(=O)c2ccccc2)cc1 | 0.0009 (≈ 0.00193 µM) | < 0.0005 | < 0.25 | > 2 | 0.208 | > 0.5 | < 0.01 |  |  |  |
| Cc1ccccc1CNC(=O)COc1ccc(Cl)cc1C(=O)c1ccccc1 | 0.05 (≈ 0.127 µM) | 0.032 (≈ 0.0812 µM) | 2.8 | > 6 | 6.35 | 10 (≈ 25.4 µM) | 0.028 (≈ 0.0711 µM) |  |  |  |
| O=C(COc1ccc(F)cc1C(=O)c1ccccc1)Nc1ccccc1 | 0.014 (≈ 0.0401 µM) | 0.006 (≈ 0.0172 µM) |  |  | 0.00859 | 10 (≈ 28.6 µM) | 0.09 (≈ 0.258 µM) |  |  |  |
| O=C(c1ccccc1)c1cc(Cl)ccc1OCCNc1ccccc1 |  |  |  |  | > 284 |  |  |  |  |  |
| O=C(COc1cc(Cl)c(Cl)cc1C(=O)c1ccccc1)Nc1ccccc1 |  |  |  |  | 0.035 | 100 (≈ 250 µM) | 0.023 (≈ 0.0575 µM) |  |  |  |
| CCc1cc(OCCCN(C)C)ccc1NC(=O)Cc1ccc(Cl)cc1C(=O)c1ccccc1 |  |  |  |  | 5.22 | 10 (≈ 20.9 µM) | 0.21 (≈ 0.438 µM) |  |  |  |
| O=C(c1ccccc1)c1cc(Cl)ccc1OC/C=C/c1ccccc1 |  |  |  |  | > 287 |  |  |  |  |  |
| CCN(CC)CCOc1ccc(NC(=O)COc2cc(OC)ccc2C(=O)c2ccccc2)cc1 | 0.05 (≈ 0.105 µM) | 0.013 (≈ 0.0273 µM) |  |  | 13.2 | 5 (≈ 10.5 µM) | < 0.01 |  |  |  |
| CCc1cc(NCc2nc3c(Cl)ccc(Cl)c3o2)c(O)nc1C [L-697661] |  |  |  |  |  |  | 0.0017 (≈ 0.00483 µM) | 100 (≈ 284 µM) | 0.0023 (≈ 0.00653 µM) | 100 (≈ 284 µM) |
| Nc1ccn([C@@H]2CS[C@H](CO)O2)c(=O)n1 [LAMIVUDINE] |  |  |  |  |  |  | 0.043 (≈ 0.188 µM) | > 100 | 0.048 (≈ 0.209 µM) |  |
| Cc1ccnc2c1NC(=O)c1cccnc1N2C1CC1 [NEVIRAPINE] |  |  |  |  |  |  | 0.01 (≈ 0.0376 µM) | > 10 | 0.22 (≈ 0.826 µM) |  |
| CC(C)(C)NC(=O)[C@@H]1C[C@@H]2CCCC[C@@H]2CN1C[C@@H](O)[C@H](Cc1ccccc1)NC(=O)[C@H](CC(N)=O)NC(=O)c1ccc2ccccc2n1 [SAQUINAVIR] |  |  |  |  |  |  | 0.028 (≈ 0.0417 µM) | > 1 | 0.0038 (≈ 0.00566 µM) |  |
